According to patent publication US5869469A, “Phosphonocarboxylate compounds for treating amyloidosis” (Queen's University at Kingston, priority 1997, dated 1999):
Where a name gives a salt, the structure may show the parent alone.

What was measured:
Aβ peptide = assay: in vitro circular dichroism (CD) assay of β-sheet secondary structure formation; conditions: Aβ peptide with test compound in Tris-HCl buffer pH 7, incubated 0 or 24 hours at 37° C., CD at 25° C.
Excerpt: It is known that amyloidogenic peptides or proteins which have formed amyloid deposits or plaques have a significant amount of β-sheet secondary structure, while the unaggregated peptide or protein generally has less β-sheet structure. It is believed that the ability of a candidate therapeutic compound to prevent the formation of β-sheet secondary structure in vitro may be correlated with the ability of the compound to inhibit amyloidogenesis in vivo. Accordingly, phosphonate compounds were assayed for ability to prevent the formation of β-sheet secondary structure in an in vitro circular dichroism (CD) assay.
Aβ is a 40 amino acid protein associated with Alzheimer's disease. Aβ peptide was prepared and purified as described in Fraser, P. E. et al., Biochemistry 31, 10716 (1992). Briefly, the peptide was synthesized by standard solid-phase techniques and purified by HPLC according to well known procedures.
All CD experiments were performed on a commercially available instrument. The cell was maintained at 25° C. using a circulating water bath. Computer-averaging of traces was performed to improve signal-to-noise ratios. The solvent signal was subtracted. CD experiments were performed for each test compound according to the following procedure:
A stock solution of purified peptide was made by dissolving the peptide in phosphate-buffered saline (PBS) to a concentration of 2 mg/ml. […]

[1] = system: cortical/hippocampal neuronal cultures; assay: neurotoxicity in cortical/hippocampal neuronal cultures; format: cell-based; conditions: concentrations ranging from 10^-7 M to 10^-4 M
amyloid peptide = amyloid peptide solubility assay (overnight incubation, centrifugation, soluble peptide determination); conditions: compound and amyloid peptide incubated together overnight, then centrifugation; preliminary result

SMILES	β-sheet formation (minimum at 218 nm in CD spectrum versus control) (Aβ peptide)	neurotoxicity [1]	effect on amyloid peptide solubility (amount of soluble peptide) (amyloid peptide)
O=C(O)P(=O)(O)O [Phosphonoformate sodium salt, Trisodium phosphonoformate]	significantly and reproducibly reduce the amount of β-sheet formation	no significant toxicity	little effect on amyloid peptide solubility
O=C(O)CCOCCP(=O)(O)O [2-carboxyethoxyethylphosphonic acid]	did not appear to prevent β-pleated sheet formation	–	–
